Measured values: US20120289501A1, “Benzene-fused 6-membered oxygen-containing heterocyclic derivatives of bicyclic heteroaryls” (NOVARTIS AG, priority 2009, published 2012)

target: IGF1R (Homo sapiens, UniProt P08069); assay: Cellular IGF-1R assay: inhibition of IGF1R phosphorylation in transduced Hek293 cells, capture ELISA (MSD); assay type: cell-based; design: Hek293 cells transduced with the corresponding receptors; expressed in transfected cells; host or cells: Hek293 (Hek293-IGF1R)
Method: In this assay the activity of the compounds of the invention against Insulin-like growth factor I (IGF-1) induced autophosphorylation of the IGF-IR is determined. The assay is conducted as follows: Compound-mediated inhibition of IGF1R and INSR phosphorylation in Hek293 cells transduced with the corresponding receptors is assessed in a capture ELISA format using the MSD (Meso Scale Discovery) platform. Briefly, 30′000 cells washed and diluted in starvation medium (DMEM high glucose supplemented with 0.1% BSA) are seeded in 90 μL per well into 96-well plates pre-coated with poly-D-lysine (0.1 mg/mL in PBS/0). After 24 h incubation at 37° C. and 5% CO2, dose-response effects are determined with 3-fold serial compound dilutions, starting at 10 μM. The final vehicle concentration is 0.1% DMSO in all wells. Following pre-incubation with compounds for 1 h, receptor phosphorylation is triggered by a 10 min exposure to 1.0 ng/μL IGF for Hek293-IGF1R cells, and 5.0 ng/μL insulin for Hek293-InsR cells. Cell lysis is achieved by addition of 80 μL MSD lysis buffer per aspirated well, incubation on ice for 20 min, and a freeze-thaw cycle. Target phosphorylation is then assessed by transferring volumes corresponding to approx. 6 μg Hek293-IGF1R or 0.6 μg Hek293-InsR lysates to MSD assay plates pre-coated with total-IGF1R or total-InsR Abs, respectively. After incubation for 2 h at rt, wells are exposed for 1 hr to a rabbit monoclonal antibody (CST #3024, 1:1000) detecting pIGF1R(Tyr1135/1136) as well as pINSR(Tyr1150/1151). Immune complexes are detected by a SULFO-Tag™-coupled anti-rabbit IgG antibody in the presence of 150 μL MSD read-buffer. Light emission at 620 nm triggered by application of electric current is recorded on a MSD SectorImager 6000. Acquired raw data (mean Ru-ECL units) are processed in an Excel analysis template. The plate blank (MSD lysis buffer) is subtracted from all data points. The effect of a particular test compound concentration on receptor phosphorylation is expressed relative to the window defined by ligand-stimulated vs unstimulated control cells (set as 100%). IC50 values [nM] are determined using 4-parametric curve-fitting (XLfit software, V4.3.2). Alternatively, the assay can be conducted with a slightly different format; Compound-mediated inhibition of IGF-1R and InsR phosphorylation in HEK293 cells overexpressing the corresponding receptors were assessed by quantitative Western blot using an Odyssey infrared imager as readout.
Compound-mediated inhibition of IGF1R and INSR phosphorylation in Hek293 cells transduced with the corresponding receptors is assessed in a capture ELISA format using the MSD (Meso Scale Discovery) platform. Briefly, 30′000 cells washed and diluted in starvation medium (DMEM high glucose supplemented with 0.1% BSA) are seeded in 90 μL per well into 96-well plates pre-coated with poly-D-lysine (0.1 mg/mL in PBS/O). After 24 h incubation at 37° C. and 5% CO2, dose-response effects are determined with 3-fold serial compound dilutions, starting at 10 μM. The final vehicle concentration is 0.1% DMSO in all wells. Following pre-incubation with compounds for 1 h, receptor phosphorylation is triggered by a 10 min exposure to 1.0 ng/μL IGF for Hek293-IGF1R cells, and 5.0 ng/μL insulin for Hek293-InsR cells. Cell lysis is achieved by addition of 80 μL MSD lysis buffer per aspirated well, incubation on ice for 20 min, and a freeze-thaw cycle. Target phosphorylation is then assessed by transferring volumes corresponding to approx. 6 μg Hek293-IGF1R or 0.6 μg Hek293-lnsR lysates to MSD assay plates pre-coated with total-IGF1R or total-lnsR Abs, respectively. After incubation for 2 h at rt, wells are exposed for 1 hr to a rabbit monoclonal antibody (CST #3024, 1:1000) detecting pIGF1R(Tyr1135/1136) as well as pINSR(Tyr1150/1151). Immune complexes are detected by a SULFO-Tag™-coupled anti-rabbit IgG antibody in the presence of 150 μL MSD read-buffer. […]

Chain of IGF1R (P08069 31-1367): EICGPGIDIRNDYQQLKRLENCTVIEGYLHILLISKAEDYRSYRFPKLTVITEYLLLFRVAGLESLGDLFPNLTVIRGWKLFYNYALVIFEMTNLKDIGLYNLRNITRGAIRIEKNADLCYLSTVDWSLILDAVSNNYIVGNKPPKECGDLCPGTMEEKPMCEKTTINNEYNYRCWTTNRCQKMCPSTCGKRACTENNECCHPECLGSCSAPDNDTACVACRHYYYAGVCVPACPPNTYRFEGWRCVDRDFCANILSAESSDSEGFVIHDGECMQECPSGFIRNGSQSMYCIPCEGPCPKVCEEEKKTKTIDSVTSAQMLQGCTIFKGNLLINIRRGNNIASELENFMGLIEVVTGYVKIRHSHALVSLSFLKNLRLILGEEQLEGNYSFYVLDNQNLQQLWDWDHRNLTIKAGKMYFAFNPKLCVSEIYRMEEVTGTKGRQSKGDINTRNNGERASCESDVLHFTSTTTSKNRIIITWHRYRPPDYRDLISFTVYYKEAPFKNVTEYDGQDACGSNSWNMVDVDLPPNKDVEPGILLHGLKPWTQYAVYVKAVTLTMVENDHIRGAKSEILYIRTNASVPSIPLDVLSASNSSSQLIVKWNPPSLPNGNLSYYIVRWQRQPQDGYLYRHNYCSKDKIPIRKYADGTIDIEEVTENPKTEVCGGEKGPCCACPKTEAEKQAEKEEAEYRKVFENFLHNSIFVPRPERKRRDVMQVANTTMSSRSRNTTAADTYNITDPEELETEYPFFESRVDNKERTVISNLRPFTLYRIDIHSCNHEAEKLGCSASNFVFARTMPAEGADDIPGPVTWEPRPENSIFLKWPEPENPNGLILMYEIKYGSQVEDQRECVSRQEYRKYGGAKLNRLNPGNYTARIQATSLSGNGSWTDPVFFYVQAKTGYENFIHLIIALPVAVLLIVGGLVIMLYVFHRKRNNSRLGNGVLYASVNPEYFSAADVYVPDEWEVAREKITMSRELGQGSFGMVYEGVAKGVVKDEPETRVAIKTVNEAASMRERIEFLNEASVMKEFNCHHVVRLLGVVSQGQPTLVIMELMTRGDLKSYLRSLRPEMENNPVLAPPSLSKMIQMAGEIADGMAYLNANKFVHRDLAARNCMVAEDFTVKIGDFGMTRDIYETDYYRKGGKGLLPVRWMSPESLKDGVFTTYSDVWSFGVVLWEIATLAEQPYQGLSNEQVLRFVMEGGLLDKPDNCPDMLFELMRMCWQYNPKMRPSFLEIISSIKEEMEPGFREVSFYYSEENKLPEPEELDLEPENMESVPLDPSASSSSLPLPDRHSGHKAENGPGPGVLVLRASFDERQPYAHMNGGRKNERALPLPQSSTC

| Molecule | IC50 [nM] |
| --- | --- |
| Cc1nccn1C[C@H]1C[C@@H](c2nc(-c3ccc4c(c3)OC(c3ccccc3)CC4)c3c(N)nccn32)C1 (mixture of isomers) [Example 7, (R,S)-3-[cis-3-(2-Methyl-imidazol-1-ylmethyl)-cyclobutyl]-1-(2-phenyl-chroman-7-yl)-imidazo[1,5-a]pyrazin-8-ylamine] | 26 |
| Nc1ncnc2c1c(-c1ccc3c(c1)OC(c1ccccc1)=CC3)cn2[C@H]1C[C@@H](CN2CCS(=O)(=O)CC2)C1 [Example 20, 7-[cis-3-(1,1-Dioxo-1-thiomorpholin-4-ylmethyl)-cyclobutyl]-5-(2-phenyl-4H-chromen-7-yl)-7H-pyrrolo[2,3-d]pyrimidin-4-ylamine] | 179 |
| Nc1ncnc2c1c(-c1ccc3c(c1)OC(c1ccccc1)CC3)cn2[C@H]1C[C@@H](CO)C1 (mixture of isomers) [Example 1, (R,S)-{cis-3-[4-Amino-5-(2-phenyl-chroman-7-yl)-pyrrolo[2,3-d]pyrimidin-7-yl]-cyclobutyl}-methanol] | 11 to 22 |
| Nc1ncnc2c1c(-c1ccc3c(c1)OC(c1ccccc1)CC3)cn2[C@H]1C[C@@H](CN2CCC[C@H]2CO)C1 (mixture of isomers) [Example 14, (1-{cis-3-[4-Amino-5-((R)-2-phenyl-chroman-7-yl)-pyrrolo[2,3-d]pyrimidin-7-yl]-cyclobutylmethyl}-(S)-pyrrolidin-2-yl)-methanol and (1-{cis-3-[4-amino-5-[((S)-2-phenyl-chroman-7-yl)-pyrrolo[2,3-d]pyrimidin-7-yl]-cyclobutylmethyl}-(S)-pyrrolidin-2-yl)-methanol] | < 5 |
| NC[C@H]1C[C@@H](n2cc(-c3ccc4c(c3)OC(c3ccccc3)CC4)c3c(N)ncnc32)C1 (mixture of isomers) [Example 13, (R,S)-7-(cis-3-Aminomethyl-cyclobutyl)-5-(2-phenyl-chroman-7-yl)-7H-pyrrolo[2,3-d]pyrimidin-4-ylamine] | 39 |
| Nc1ncnc2c1c(-c1ccc3c(c1)OC(c1ccccc1)CC3)cn2[C@H]1C[C@@H](Cn2ccnc2CO)C1 (mixture of isomers) [Example 18, (R,S)-(1-{cis-3-[4-Amino-5-(2-phenyl-chroman-7-yl)-pyrrolo[2,3-d]pyrimidin-7-yl]-cyclobutylmethyl}-1H-imidazol-2-yl)-methanol] | 14 |
| (R,S)—N-{cis-3-[4-Amino-5-(2-phenyl-chroman-7-yl)-pyrrolo[2,3-d]pyrimidin-7-yl]-cyclobutylmethyl}-methanesulfonamide [Example 17] | 24 |
| Nc1ncnc2c1c(-c1ccc3c(c1)OC(c1ccccc1)CC3)cn2[C@H]1C[C@H](CO)C1 (mixture of isomers) [Example 2, (R,S)-{Trans-3-[4-amino-5-(2-phenyl-chroman-7-yl)-pyrrolo[2,3-d]pyrimidin-7-yl]-cyclobutyl}-methanol] | 30 to 103 |
| CC1(O)CC(c2nc(-c3ccc4c(c3)O[C@@H](c3ccccc3)CC4)c3c(N)nccn23)C1 (stereo partly drawn) [Example 19, (R,S)—(Z)-3-[8-Amino-1-(2-phenyl-chroman-7-yl)-imidazo[1,5-a]pyrazin-3-yl]-1-methylcyclobutanol] | 158 |

More lines, now with the values ahead:

| IC50 [nM] | Molecule |
| --- | --- |
| 59 | Nc1ncnc2c1c(-c1ccc3c(c1)OC(C1CCCO1)CC3)cn2[C@H]1CC[C@@H](N2CCS(=O)(=O)CC2)CC1 (mixture of isomers) [Example 64, (±)-7-[cis-4-(1,1-dioxo-1λ6-thiomorpholin-4-yl)-cyclohexyl]-5-[2-trans-(tetrahydro-furan-2-yl)chroman-7-yl]-7H-pyrrolo[2,3-d]pyrimidin-4-ylamine] |
| 17 | Nc1ncnc2c1c(-c1ccc3c(c1)OC(C1CCCO1)CC3)cn2C1CC(CN2CC3CC2CS3(=O)=O)C1 (mixture of isomers) [Example 67, 7-[cis-3-((S,S)-2,2-dioxo-2λ6-thia-5-aza-bicyclo[2,2,1]hept-5-ylmethyl)-cyclobutyl]-5-[2-cis-(tetrahydro-furan-2-yl-chroman-7-yl)-7H-pyrrolo[2,3-d]pyrimidin-4-ylamine] |
| 49 | CN1CCN(CC2CC(n3cc(-c4ccc5c(c4)OC(c4ccccc4)CC5)c4c(N)ncnc43)C2)CC1=O (stereo not drawn) [Example 46, 4-{3-[4-Amino-5-(2-phenyl-chroman-7-yl)-pyrrolo[2,3-d]pyrimidin-7-yl]-cyclobutylmethyl}-1-methyl-piperazin-2-one] |
| 525 | Nc1ncnc2c1c(-c1ccc3c(c1)OC(c1ccccc1)CC3)cn2[C@H]1C[C@@](O)(Cn2cnnc2)C1 (stereo partly drawn) [Example 47, (E)-3-[4-Amino-5-(2-phenyl-chroman-7-yl)-pyrrolo[2,3-d]pyrimidin-7-yl]-1-[1,2,4]triazol-4-ylmethylcyclobutanol] |
| 8 | Nc1ncnc2c1c(-c1ccc3c(c1)O[C@@H](c1ccccc1)CC3)cn2[C@H]1C[C@@H](CN2CCS(=O)(=O)CC2)C1 [Example 24, (R)-7-[cis-3-(1,1-Dioxo-thiomorpholin-4-ylmethyl)-cyclobutyl]-5-(2-phenyl-chroman-7-yl)-7H-pyrrolo[2,3-d]pyrimidin-4-ylamine] |
| 46 | Nc1ncnc2c1c(-c1ccc3c(c1)OC(c1ccccc1)CC3)cn2C1CC(CN2CCC(O)CC2)C1 (stereo not drawn) [Example 37, 1-{3-[4-Amino-5-(2-phenyl-chroman-7-yl)-pyrrolo[2,3-d]pyrimidin-7-yl]-cyclobutylmethyl}-piperidin-4-ol] |
| 99 | CC(C)C(=O)N[C@H]1CC[C@@H](n2cc(-c3ccc4c(c3)OC(c3ccccc3)CC4)c3c(N)ncnc32)CC1 (mixture of isomers) [Example 52, (±)-N-(cis-4-(4-amino-5-(2-phenylchroman-7-yl)-7H-pyrrolo[2,3-d]pyrimidin-7-yl)cyclohexyl)isobutyramide] |
| 34 | Nc1ncnc2c1c(-c1ccc3c(c1)OC(c1ccccc1)CC3)cn2[C@H]1C[C@@H](CN2CCNC(=O)C2)C1 (mixture of isomers) [Example 28, (R,S)-4-{3-[4-amino-5-(2-phenyl-chroman-7-yl)-pyrrolo[2,3-d]pyrimidin-7-yl]-cyclobutylmethyl}-piperazin-2-one] |
| 272 to 338 | Nc1ncnc2c1c(-c1ccc3c(c1)OC(c1ccccc1)CC3)cn2C1CC(O)(CO)C1 (single isomer, unassigned) [Example 42, (Z)-3-K-Amino-5-(2-phenyl-chroman-7-yl)-pyrrolo[2,3-d]pyrimidin-7-yl]-1-hydroxymethyl-cyclobutanol] |
| 136 | Nc1ncnc2c1c(-c1ccc3c(c1)OC(c1ccccc1)CC3)cn2[C@H]1CC[C@@H](NC(=O)C2CC2)CC1 (mixture of isomers) [Example 51, (±)-N-(cis-4-(4-amino-5-(2-phenylchroman-7-yl)-7H-pyrrolo[2,3-d]pyrimidin-7-yl)cyclohexyl)cyclopropanecarboxamide] |
| 96 | Nc1ncnc2c1c(-c1ccc3c(c1)OC(c1ccccc1)CC3)cn2[C@H]1C[C@H](O)C1 (relative stereo) [Example 49, trans-3-[4-Amino-5-(2-phenyl-chroman-7-yl)-pyrrolo[2,3-d]pyrimidin-7-yl]-cyclobutanol] |
| 7 | Nc1ncnc2c1c(-c1ccc3c(c1)OC(C1CCCO1)CC3)cn2C1CC(CN2CCS(=O)(=O)CC2)C1 (single isomer, unassigned) [Example 31, (u)-7-[3-(1,1-Dioxo-1-thiomorpholin-4-ylmethyl)-cyclobutyl]-5-[2-(tetrahydro-furan-2-yl)-chroman-7-yl]-7H-pyrrolo[2,3-d]pyrimidin-4-ylamine] |
